Results taken from patent US20090118286A1, “Heterobicyclic Acrylamides” (Bayer Cropscience AG, priority 2005, published 2009).

Experiment: log P determination by HPLC (EEC Directive 79/831 Annex V.A8, gradient method)
Format: physicochemical
Conditions: for chromatographic logP: HPLC gradient method, acetonitrile/0.1% strength aqueous phosphoric acid or formic acid, preparation examples, read-out: log P

Structure (SMILES): C=CCN(C)C(=O)/C=C/c1c(-c2ccc(Cl)cc2Cl)nc2sc(C(F)(F)F)nn12 [Example 0570]
- Physical data: log P: 4.0

Structure (SMILES): O=C(/C=C/c1c(-c2ccccc2Cl)nc2sc(C(F)(F)F)nn12)NC1CCCCC1 [Example 0155]
- Physical data (logP): 3.9

Structure (SMILES): Cc1csc2nc(-c3ccccc3Cl)c(/C=C/C(=O)NC3CC3)n12 [Example 0895]
- Physical data: logP: 1.94

Structure (SMILES): CCC(C)NC(=O)/C=C/c1c(-c2cccc(C(F)(F)F)c2)nc2sc(C(F)(F)F)nn12 (stereo not shown) [Example 0380]
- Physical data: log P: 4.18

Structure (SMILES): CC(ONC(=O)/C=C/c1c(-c2cccc(C(F)(F)F)c2)nc2sc(C(F)(F)F)nn12)c1ccccc1 (stereo not shown) [Example 0426]
- Physical data: log P: 4.37

Structure (SMILES): CCC(C)NC(=O)/C=C/c1c(-c2ccc(OC)c(OC)c2)nc2sc(C(F)(F)F)nn12 (stereo not shown) [Example 0661]
- Physical data: logP: 3.14

Structure (SMILES): O=C(/C=C/c1c(-c2cccc(C(F)(F)F)c2)nc2sc(C(F)(F)F)nn12)NC1CCC1 [Example 0376]
- Physical data: log P: 4.03

Structure (SMILES): Cc1csc2nc(-c3ccccc3Cl)c(/C=C/C(=O)NCC(C)C)n12 [Example 0882]
- Physical data: logP: 2.4

Structure (SMILES): COc1ccc(-c2nc3sc(C(F)(F)F)nn3c2/C=C/C(=O)NC(C)c2ccccn2)cc1OC (stereo not shown) [Example 0698]
- Physical data: logP: 2.16

Structure (SMILES): Cc1ccccc1-c1nc2sc(C(F)(F)F)nn2c1/C=C/C(=O)N1CCCCC1 [Example 0293]
- Physical data: log P: 3.85

Structure (SMILES): CC(NC(=O)/C=C/c1c(-c2ccccc2Cl)nc2sc(C(F)(F)F)nn12)C(F)(F)F (single isomer, unassigned) [Example 0185]
- Physical data (logP): 3.77

Structure (SMILES): O=Cc1c(-c2ccc(F)cc2Cl)nc2sc(C(F)(F)C(F)(F)F)nn12 [IVA112]
- Physical data (logP): 3.63

Structure (SMILES): CCC(NC(=O)/C=C/c1c(-c2ccc(Cl)cc2)nc2sc(C(F)(F)F)nn12)c1ccccc1 (stereo not shown) [Example 0039]
- Physical data (logP): 4.56

Structure (SMILES): Cc1cn2c(/C=C/C(=O)Nc3ccc(OC(F)(F)F)cc3)c(-c3ccccc3Cl)nc2s1 [Example 0878]
- Physical data: logP: 3.9

Structure (SMILES): COCc1nn2c(/C=C/C(=O)Nc3ccc(OC(F)(F)F)cc3)c(-c3ccccc3Cl)nc2s1 [Example 0834]
- Physical data: logP: 4

Structure (SMILES): CC(NC(=O)/C=C/c1c(-c2ccccc2Cl)nc2sc(-c3ccc(C(F)(F)F)cc3)nn12)C(F)(F)F (stereo not shown) [Example 0839]
- Physical data: logP: 4.37

Structure (SMILES): CC(C)C(C)NC(=O)/C=C/c1c(-c2cccc(C(F)(F)F)c2)nc2sc(C(F)(F)F)nn12 (stereo not shown) [Example 0387]
- Physical data: log P: 4.46

Structure (SMILES): O=C(C=Cc1c(-c2ccccc2Cl)nc2sc(C(F)(F)F)nn12)NC(c1ccc(F)cc1)C(F)(F)F (stereo not shown) [Example 0918]
- Physical data: logP: 4.34

Structure (SMILES): COc1ccc(-c2nc3sc(C(F)(F)F)nn3c2/C=C/C(=O)NC2CCCCC2)cc1OC [Example 0659]
- Physical data: logP: 3.55

Structure (SMILES): CCC(NC(=O)C=Cc1c(-c2ccc(F)cc2)nc2sc(C(F)(F)F)nn12)C1CCCCC1 (stereo not shown) [Example 0338]
- Physical data: log P: 4.92

Structure (SMILES): CCC(C)NC(=O)/C=C/c1c(-c2ccccc2Cl)nc2sc(-c3ccc(C(F)(F)F)cc3)nn12 (stereo not shown) [Example 0847]
- Physical data: logP: 4.33

Structure (SMILES): CCC(C)NC(=O)/C=C/c1c(-c2ccc(F)cc2)nc2sc(C(F)(F)F)nn12 (stereo not shown) [Example 0309]
- Physical data: log P: 3.55

Structure (SMILES): Cc1ccccc1-c1nc2sc(C(F)(F)F)nn2c1/C=C/C(=O)NC1CCCCC1 [Example 0236]
- Physical data: log P: 4.03

Structure (SMILES): O=C(/C=C/c1c(-c2cccc(Cl)c2)nc2sc(C(F)(F)F)nn12)NOCC1CC1 [Example 0130]
- Physical data (logP): 3.63

Structure (SMILES): O=C(O)/C=C/c1c(-c2ccc(F)cc2)nc2sc(C(F)(F)F)nn12 [VA-6]
- Physical data (logP): 2.75

Structure (SMILES): C[C@@H](C[S+](C)[O-])NC(=O)/C=C/c1c(-c2ccc(Cl)cc2Cl)nc2sc(C(F)(F)F)nn12 (stereo partly drawn) [Example 0002, (2E)-3-[6-(2,4-Dichlorophenyl)-2-(trifluoromethyl)imidazo[2,1-b][1,3,4]thiadiazol-5-yl]-N-[(1S)-1-methyl-2-(methylsulphinyl)ethyl]acrylamide]
- chromatographic logP: 2.48

Structure (SMILES): Cc1csc2nc(-c3ccccc3Cl)c(/C=C/C(=O)Nc3ccc(Cl)cc3)n12 [Example 0899]
- Physical data: logP: 3.24

Structure (SMILES): Cc1csc2nc(-c3ccccc3Cl)c(/C=C/C(=O)NC(C)C(C)(C)C)n12 (stereo not shown) [Example 0892]
- Physical data: logP: 2.84

Structure (SMILES): CC(C)C(C)NC(=O)/C=C/c1c(-c2ccc(Cl)cc2)nc2sc(C(F)(F)F)nn12 (stereo not shown) [Example 0023]
- Physical data (logP): 4.25

Structure (SMILES): CC(C)NC(=O)/C=C/c1c(-c2nccs2)nc2sc(C(F)(F)C(F)(F)F)nn12 [Example 0985]
- Physical data: logP: 3.27

Structure (SMILES): Cc1ccccc1-c1nc2sc(C(F)(F)F)nn2c1/C=C/C(=O)NC(C)COc1ccccc1 (stereo not shown) [Example 0265]
- Physical data: log P: 4.18

Structure (SMILES): Cc1ccccc1-c1nc2sc(C(F)(F)F)nn2c1/C=C/C(=O)N1CCOCC1 [Example 0294]
- Physical data: log P: 2.91

Structure (SMILES): O=C(O)/C=C/c1c(-c2ccccc2Cl)nc2sc(C(F)F)nn12 [VA-14]
- Physical data (logP): 2.41

Structure (SMILES): COCc1nn2c(/C=C/C(=O)NC(C)C(F)(F)F)c(-c3ccccc3Cl)nc2s1 (stereo not shown) [Example 0817]
- Physical data: logP: 2.93

Structure (SMILES): COCc1nn2c(/C=C/C(=O)NC(C)C)c(-c3ccccc3Cl)nc2s1 [Example 0824]
- Physical data: logP: 2.4

Structure (SMILES): CC(C)NC(=O)/C=C/c1c(-c2ccccc2Cl)nc2scc(-c3ccccc3)n12 [Example 0904]
- Physical data: logP: 2.77

Structure (SMILES): COCC(C)NC(=O)/C=C/c1c(-c2ccc(Cl)cc2)nc2sc(C(F)(F)F)nn12 (stereo not shown) [Example 0018]
- Physical data (logP): 4.27

Structure (SMILES): CC(C)NC(=O)/C=C/c1c(-c2cccc(C(F)(F)F)c2)nc2sc(C(F)(F)F)nn12 [Example 0371]
- Physical data: log P: 3.85

Structure (SMILES): CC(C)(C)c1nn2c(/C=C/C(=O)Nc3ccc(OC(F)(F)F)cc3)c(-c3ccccc3Cl)nc2s1 [Example 0812]
- Physical data: logP: 5.13

Structure (SMILES): CCC(NC(=O)/C=C/c1c(-c2ccc(Cl)cc2)nc2sc(C(F)(F)F)nn12)C1CCCCC1 (stereo not shown) [Example 0045]
- Physical data (logP): 5.31

Structure (SMILES): O=C(/C=C/c1c(-c2ccccc2Cl)nc2sc(-c3ccc(C(F)(F)F)cc3)nn12)NC1CCC1 [Example 0852]
- Physical data: logP: 4.21

Structure (SMILES): CC(C)(C)CCNC(=O)/C=C/c1c(-c2ccccc2Cl)nc2sc(C(C)(C)C)nn12 [Example 0805]
- Physical data: logP: 4.4

Structure (SMILES): CCNC(=O)/C=C/c1c(-c2ccc(Cl)cc2)nc2sc(C(F)(F)F)nn12 [Example 0006]
- Physical data (logP): 3.25

Structure (SMILES): CCC(NC(=O)C=Cc1c(-c2ccccc2C)nc2sc(C(F)(F)F)nn12)c1ccccc1 (stereo not shown) [Example 0261]
- Physical data: log P: 4.18

Structure (SMILES): O=C(/C=C/c1c(-c2ccc(Cl)cc2)nc2sc(C(F)(F)F)nn12)NOCC1CC1 [Example 0060]
- Physical data (logP): 3.59

Structure (SMILES): O=C(/C=C/c1c(-c2ccc(F)cc2)nc2sc(C(F)(F)F)nn12)NC1CCC1 [Example 0305]
- Physical data: log P: 3.41

Structure (SMILES): CC(C)C(NC(=O)/C=C/c1c(-c2ccccc2Cl)nc2sc(C(C)(C)C)nn12)C(F)(F)F (stereo not shown) [Example 0796]
- Physical data: logP: 4.46

Structure (SMILES): COc1ccc(-c2nc3sc(C(F)(F)F)nn3c2/C=C/C(=O)NOCC2CC2)cc1OC [Example 0706]
- Physical data: logP: 2.88

Structure (SMILES): Cc1ccccc1-c1nc2sc(C(F)(F)F)nn2c1/C=C/C(=O)NC1CC1 [Example 0233]
- Physical data: log P: 2.99

Structure (SMILES): O=C(O)/C=C/c1c(-c2ccc(Cl)cc2Cl)nc2sc(C(F)(F)F)nn12 [VA-1, (2E)-3-[6-(2,4-Dichlorophenyl)-2-(trifluoromethyl)imidazo[2,1-b][1,3,4]thiadiazol-5-yl]acrylic Acid]
- chromatographic logP: 3.15

Structure (SMILES): O=C(O)/C=C/c1c(-c2ccccc2Cl)nc2scnn12 [VA112]
- Physical data (logP): 1.84

Structure (SMILES): Cc1csc2nc(-c3ccccc3Cl)c(/C=C/C(=O)NC(C)C(F)(F)F)n12 (stereo not shown) [Example 0883]
- Physical data: logP: 2.59

Structure (SMILES): Cc1ccccc1-c1nc2sc(C(F)(F)F)nn2c1/C=C/C(=O)NOC(C)c1ccccc1 (stereo not shown) [Example 0284]
- Physical data: log P: 3.81

Structure (SMILES): O=C(/C=C/c1c(-c2ccccc2Cl)nc2sc(-c3ccc(C(F)(F)F)cc3)nn12)NC1CCC(C(F)(F)F)CC1 (stereo not shown) [Example 0843]
- Physical data: logP: 4.86

Structure (SMILES): O=C(/C=C/c1c(-c2ccccc2Cl)nc2sc(-c3ccc(C(F)(F)F)cc3)nn12)NCC(F)(F)C(F)(F)C(F)(F)F [Example 0859]
- Physical data: logP: 5

Structure (SMILES): O=C(O)/C=C/c1c(-c2nccs2)nc2sc(C(F)(F)F)nn12 [VA115]
- Physical data (logP): 2.48

Structure (SMILES): Cc1cn2c(/C=C/C(=O)NCC(F)(F)C(F)(F)F)c(-c3ccccc3Cl)nc2s1 [Example 0880]
- Physical data: logP: 3.09

Structure (SMILES): CC(C)NC(=O)/C=C/c1c(-c2ccc(F)cc2Cl)nc2sc(C(F)(F)C(F)(F)F)nn12 [Example 0972]
- Physical data: logP: 3.79

Structure (SMILES): Cc1cn2c(/C=C/C(=O)NCC(F)(F)C(F)(F)C(F)(F)F)c(-c3ccccc3Cl)nc2s1 [Example 0881]
- Physical data: logP: 3.51

Structure (SMILES): O=C(/C=C/c1c(-c2ccc(F)cc2)nc2sc(C(F)(F)F)nn12)NC1CCCC1 [Example 0306]
- Physical data: log P: 3.63

Structure (SMILES): O=C(/C=C/c1c(-c2ccccc2Cl)nc2sc(C(F)(F)F)nn12)N1CCCCC1 [Example 0222]
- Physical data: log P: 3.76

Structure (SMILES): CC(COc1ccccc1)NC(=O)/C=C/c1c(-c2cccc(Cl)c2)nc2sc(C(F)(F)F)nn12 (stereo not shown) [Example 0113]
- Physical data (logP): 4.56

Structure (SMILES): O=C(/C=C/c1c(-c2cccc(C(F)(F)F)c2)nc2sc(C(F)(F)F)nn12)NOCC1CC1 [Example 0424]
- Physical data: log P: 3.81

Structure (SMILES): Cc1csc2nc(-c3ccccc3Cl)c(/C=C/C(=O)NC3CCCC3)n12 [Example 0897]
- Physical data: logP: 2.46
